The values that follow come from patent US11771706B2, “Oral solutions comprising fludrocortisone acetate” (LABOMED PHARMACEUTICAL COMPANY S.A., priority 2020, dated 2023).

For data set [1] the following is noted: relative to cortisol; cited from earlier work.
The nature of data set [2]: Storage stability of aqueous liquid compositions of fludrocortisone acetate (Example 1), HPLC. The data set is classed as physicochemical. The following applies: conclusion from Tables 1a-1c, 40° C., 75% RH, three months. The protocol:
Storage conditions of temperature (40° C.) and relative humidity (75%) applied for a period of three months. Quantification of fludrocortisone acetate and its degradation impurities was performed by HPLC.

As to `CC(=O)OCC(=O)[C@@]1(O)CC[C@H]2[C@@H]3CCC4=CC(=O)CC[C@]4(C)[C@@]3(F)[C@@H](O)C[C@@]21C` [Fludrocortisone acetate], the glucocorticoid potency in data set [1] is listed as 10 times. Moreover, in data set [2], the “stability of fludrocortisone acetate in aqueous compositions” value was “unstable and easily hydrolyzed”.
